This is an account of results in patent US9169241B2, “Quinolinyloxyphenylsulfonamides” (Max-Planck-Gesellschaft Zur Forderung der Wissenschaften …, priority 2009, dated 2015).

Like-named read-outs stand apart in the source and are kept apart here.

One data set relates to viable cells in culture. The experiment in a line: Cell viability assay at 10 μM (CellTiter-Glo, Table VII).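 Also: graded A 0-20%; B 21-40%; C 41-60%; D over 60% viable cells relative to DMSO control.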 The following applies: compound 10 μM, 72 h. The class given is cell-based. The procedure:
The CellTiter-Glo® Luminescent Cell Viability Assay (Promega Corporation. Madison, Wis., USA) is method a determining the number of viable cells in culture based on quantification of the ATP being present which is an indicator of metabolically active cells was used according to manufacturers protocol. In detail the assay was performed in a 96 well format were 1000 cells/well were incubated with compound at concentration 10 μM as well as DMSO control for 72 h in 100 μl cell culture medium. Percentage of inhibition was calculated compared to ATP amount of DMSO control.

Where [1] appears, read: Homo sapiens, HCT-116, HCT116 def, read-out: percentage (%) of viable cells HCT 116def.
Where [2] appears, read: Homo sapiens, HCT-116, HCT116 wt, read-out: percentage (%) of viable cells HCT 116wt.
[3] abbreviates: Homo sapiens, HT-29, HT29, read-out: percentage (%) of viable cells HT29.
[4] abbreviates: Homo sapiens, NCI-H358, H358, read-out: percentage (%) of viable cells H358.
Setting [5] is: Homo sapiens, NCI-H1650, H1650, read-out: percentage (%) of viable cells H1650.
The mark [6] stands for this setting: Homo sapiens, NCI-H1666, H1666, read-out: percentage (%) of viable cells H1666.
[7] abbreviates: Homo sapiens, NCI-H1975, H1975, read-out: percentage (%) of viable cells H1975.
Setting [8] is: Homo sapiens, NCI-H1993, H1993, read-out: percentage (%) of viable cells H1993.
The mark [9] stands for this setting: Homo sapiens, A549, read-out: percentage (%) of viable cells A549.
Where [10] appears, read: Homo sapiens, HCC827, read-out: percentage (%) of viable cells HCC827.
Where [11] appears, read: Homo sapiens, SW480, read-out: percentage (%) of viable cells SW480.
Setting [12] is: RKO, read-out: percentage (%) of viable cells RKO.

For orientation: melting point means the temperature of the solid-liquid transition. As for `COc1cc2c(Oc3ccc(NS(=O)(=O)c4cccc(-c5ccccc5)c4)cc3F)ccnc2cc1OCCCN1CCN(C)CC1` [Example 13, Biphenyl-3-sulfonic acid (3-fluoro-4-{6-methoxy-7-[3-(4-methyl-piperazin-1-yl)-propoxy]-quinolin-4-yloxy}-phenyl)-amide], the melting point is 190 to 191 °C. For the same molecule, the viability at 10 µM with viable cells in culture (setting [1]) was in the range of 0 to 20%. Besides, the viability at 10 µM in the data set on viable cells in culture (setting [2]) was 0 to 20%. In addition, the viability at 10 µM with viable cells in culture (setting [3]) lay in the range of 0 to 20%. The viability at 10 µM with viable cells in culture (setting [4]) lay within 0 to 20%. In the data set with viable cells in culture (setting [5]), the viability at 10 µM is 21 to 40%. Besides, the viability at 10 µM with viable cells in culture (setting [6]) was in the range of 0 to 20%. Moreover, in the data set with viable cells in culture (setting [7]), the viability at 10 µM was 0 to 20%. In addition, in the data set on viable cells in culture (setting [8]), the viability at 10 µM lay within 0 to 20%. Moreover, the viability at 10 µM in the data set on viable cells in culture (setting [9]) fell in the range of 21 to 40%. In the data set on viable cells in culture (setting [10]), the viability at 10 µM was in the range of 0 to 20%. Further, the viability at 10 µM in the data set on viable cells in culture (setting [11]) was in the range of 0 to 20%. Also, the viability at 10 µM in the data set on viable cells in culture (setting [12]) lay within 0 to 20%.
In turn, `COc1cc2c(Oc3ccc(NS(=O)(=O)c4ccccc4Br)cc3F)ccnc2cc1OCCCN1CCN(C)CC1` [Example 19, 2-Bromo-N-(3-fluoro-4-{6-methoxy-7-[3-(4-methyl-piperazin-1-yl)-propoxy]-quinolin-4-yloxy}-phenyl)-benzenesulfonamide] yielded a melting point of 98 to 101 °C. In the data set on viable cells in culture (setting [1]), the viability at 10 µM fell in the range of 21 to 40%. Further, the viability at 10 µM in the data set on viable cells in culture (setting [2]) fell in the range of 0 to 20%. In the data set with viable cells in culture (setting [3]), the viability at 10 µM was in the range of 0 to 20%. Further, the viability at 10 µM in the data set on viable cells in culture (setting [4]) was 0 to 20%. Also, the viability at 10 µM with viable cells in culture (setting [5]) is 21 to 40%. Moreover, the viability at 10 µM in the data set on viable cells in culture (setting [6]) is 21 to 40%. In addition, the viability at 10 µM in the data set with viable cells in culture (setting [7]) was in the range of 21 to 40%. Further, the viability at 10 µM in the data set on viable cells in culture (setting [8]) was 0 to 20%. For the same molecule, the viability at 10 µM in the data set on viable cells in culture (setting [9]) fell in the range of 21 to 40%. Further, the viability at 10 µM in the data set with viable cells in culture (setting [10]) was 21 to 40%. Besides, the viability at 10 µM in the data set on viable cells in culture (setting [11]) was 0 to 20%. For the same molecule, the viability at 10 µM in the data set on viable cells in culture (setting [12]) was in the range of 0 to 20%.
In turn, `COc1cc2c(Oc3ccc(NS(=O)(=O)c4cc(Cl)ccc4Cl)cc3F)ccnc2cc1OCCCN1CCN(C)CC1` [Example 20, 2,5-Dichloro-N-(3-fluoro-4-{6-methoxy-7-[3-(4-methyl-piperazin-1-yl)-propoxy]-quinolin-4-yloxy}-phenyl)-benzenesulfonamide] returned a melting point of 134 to 136 °C. Moreover, the viability at 10 µM in the data set on viable cells in culture (setting [1]) is 21 to 40%. For the same molecule, the viability at 10 µM in the data set with viable cells in culture (setting [2]) is 0 to 20%. In addition, the viability at 10 µM in the data set on viable cells in culture (setting [3]) is 0 to 20%. Also, the viability at 10 µM in the data set on viable cells in culture (setting [4]) fell in the range of 0 to 20%. Besides, the viability at 10 µM in the data set with viable cells in culture (setting [5]) lay in the range of 21 to 40%. For the same molecule, the viability at 10 µM in the data set with viable cells in culture (setting [6]) is 21 to 40%. In the data set with viable cells in culture (setting [7]), the viability at 10 µM was in the range of 21 to 40%. The viability at 10 µM with viable cells in culture (setting [8]) is 21 to 40%. Also, the viability at 10 µM in the data set on viable cells in culture (setting [9]) is greater than 60%. The viability at 10 µM in the data set with viable cells in culture (setting [10]) fell in the range of 41 to 60%. For the same molecule, in the data set with viable cells in culture (setting [11]), the viability at 10 µM fell in the range of 0 to 20%. In addition, the viability at 10 µM in the data set on viable cells in culture (setting [12]) was 0 to 20%.
Regarding `COc1cc2c(Oc3ccc(NS(=O)(=O)c4cccc(F)c4)cc3F)ccnc2cc1OCCCN1CCN(C)CC1` [Example 22], the melting point lay within 82 to 84 °C. Also, the viability at 10 µM with viable cells in culture (setting [1]) lay within 21 to 40%. The viability at 10 µM in the data set on viable cells in culture (setting [2]) was in the range of 21 to 40%. For the same molecule, the viability at 10 µM with viable cells in culture (setting [3]) was in the range of 0 to 20%. Moreover, the viability at 10 µM in the data set on viable cells in culture (setting [4]) is 0 to 20%. For the same molecule, in the data set on viable cells in culture (setting [5]), the viability at 10 µM lay within 21 to 40%. Further, the viability at 10 µM with viable cells in culture (setting [6]) was in the range of 21 to 40%. In the data set with viable cells in culture (setting [7]), the viability at 10 µM fell in the range of 0 to 20%. Further, in the data set on viable cells in culture (setting [8]), the viability at 10 µM fell in the range of 0 to 20%. In addition, the viability at 10 µM in the data set on viable cells in culture (setting [9]) was greater than 60%. In addition, the viability at 10 µM with viable cells in culture (setting [10]) lay in the range of 21 to 40%. The viability at 10 µM with viable cells in culture (setting [11]) is 0 to 20%. Also, the viability at 10 µM in the data set on viable cells in culture (setting [12]) is 21 to 40%.
